According to ChEMBL document CHEMBL4316614, “Design, synthesis and biological evaluation of 1,4-dihydroxyanthraquinone derivatives as anticancer agents” (Bioorg Med Chem Lett, 2019):

molecular target: T1, DNA topoisomerase II (Homo sapiens, UniProt P11388+Q02880); test: Inhibition of topoisomerase 2 in human HepG2 cells assessed as reduction in cell growth measured after 72 hrs by MTT assay; format: cell-based; details: not given

| Structure (SMILES) | IC50 [µM] |
| --- | --- |
| O=C1c2ccccc2C(=O)c2c(O)c(C(O)c3cc(Br)cs3)cc(O)c21 (stereo not given) | 23.9 |
| CSc1ccc(C(O)c2cc(O)c3c(c2O)C(=O)c2ccccc2C3=O)cc1 (stereo not given) | > 50 |
| COc1cccc2c1C(=O)c1c(O)c3c(c(O)c1C2=O)C[C@@](O)(C(=O)CO)C[C@@H]3O[C@H]1C[C@H](N)[C@H](O)[C@H](C)O1 [DOXORUBICIN] | 2.6 |
| O=C1c2ccccc2C(=O)c2c(O)c(C(O)c3ccc(Cl)s3)cc(O)c21 (stereo not given) | 24.4 |
| O=C1c2ccccc2C(=O)c2c(O)ccc(O)c21 [QUINIZARIN] | > 200 |

molecular target: T1, DNA topoisomerase II; test: Inhibition of topoisomerase 2 in human HeLa cells assessed as reduction in cell growth measured after 72 hrs by MTT assay; format: cell-based; details: not given

| Structure (SMILES) | IC50 [µM] |
| --- | --- |
| O=C1c2ccccc2C(=O)c2c(O)c(C(O)c3cc(Br)cs3)cc(O)c21 (stereo not given) | 18.4 |
| CSc1ccc(C(O)c2cc(O)c3c(c2O)C(=O)c2ccccc2C3=O)cc1 (stereo not given) | > 50 |
| COc1cccc2c1C(=O)c1c(O)c3c(c(O)c1C2=O)C[C@@](O)(C(=O)CO)C[C@@H]3O[C@H]1C[C@H](N)[C@H](O)[C@H](C)O1 [DOXORUBICIN] | 3.3 |
| O=C1c2ccccc2C(=O)c2c(O)c(C(O)c3ccc(Cl)s3)cc(O)c21 (stereo not given) | 21.2 |
| O=C1c2ccccc2C(=O)c2c(O)ccc(O)c21 [QUINIZARIN] | > 200 |

molecular target: T1, DNA topoisomerase II; test: Inhibition of topoisomerase 2 in human A549 cells assessed as reduction in cell growth measured after 72 hrs by MTT assay; format: cell-based; details: not given

| Structure (SMILES) | IC50 [µM] |
| --- | --- |
| O=C1c2ccccc2C(=O)c2c(O)c(C(O)c3cc(Br)cs3)cc(O)c21 (stereo not given) | 41.5 |
| CSc1ccc(C(O)c2cc(O)c3c(c2O)C(=O)c2ccccc2C3=O)cc1 (stereo not given) | > 50 |
| COc1cccc2c1C(=O)c1c(O)c3c(c(O)c1C2=O)C[C@@](O)(C(=O)CO)C[C@@H]3O[C@H]1C[C@H](N)[C@H](O)[C@H](C)O1 [DOXORUBICIN] | 2.3 |
| O=C1c2ccccc2C(=O)c2c(O)c(C(O)c3ccc(Cl)s3)cc(O)c21 (stereo not given) | 33 |
| O=C1c2ccccc2C(=O)c2c(O)ccc(O)c21 [QUINIZARIN] | > 200 |

molecular target: T1, DNA topoisomerase II; test: Inhibition of topoisomerase 2 in human CNE1 cells assessed as reduction in cell growth measured after 72 hrs by MTT assay; format: cell-based; details: not given

| Structure (SMILES) | IC50 [µM] |
| --- | --- |
| O=C1c2ccccc2C(=O)c2c(O)c(C(O)c3cc(Br)cs3)cc(O)c21 (stereo not given) | 19.7 |
| CSc1ccc(C(O)c2cc(O)c3c(c2O)C(=O)c2ccccc2C3=O)cc1 (stereo not given) | > 50 |
| COc1cccc2c1C(=O)c1c(O)c3c(c(O)c1C2=O)C[C@@](O)(C(=O)CO)C[C@@H]3O[C@H]1C[C@H](N)[C@H](O)[C@H](C)O1 [DOXORUBICIN] | 1.2 |
| O=C1c2ccccc2C(=O)c2c(O)c(C(O)c3ccc(Cl)s3)cc(O)c21 (stereo not given) | 17.75 |
| O=C1c2ccccc2C(=O)c2c(O)ccc(O)c21 [QUINIZARIN] | > 200 |

molecular target: T1, DNA topoisomerase II; test: Inhibition of topoisomerase 2 in human MCF7 cells assessed as reduction in cell growth measured after 72 hrs by MTT assay; format: cell-based; details: not given

| Structure (SMILES) | IC50 [µM] |
| --- | --- |
| O=C1c2ccccc2C(=O)c2c(O)c(C(O)c3cc(Br)cs3)cc(O)c21 (stereo not given) | 17.5 |
| CSc1ccc(C(O)c2cc(O)c3c(c2O)C(=O)c2ccccc2C3=O)cc1 (stereo not given) | > 50 |
| COc1cccc2c1C(=O)c1c(O)c3c(c(O)c1C2=O)C[C@@](O)(C(=O)CO)C[C@@H]3O[C@H]1C[C@H](N)[C@H](O)[C@H](C)O1 [DOXORUBICIN] | 1.5 |
| O=C1c2ccccc2C(=O)c2c(O)c(C(O)c3ccc(Cl)s3)cc(O)c21 (stereo not given) | 29.3 |
| O=C1c2ccccc2C(=O)c2c(O)ccc(O)c21 [QUINIZARIN] | > 200 |

molecular target: T1, DNA topoisomerase II; test: Inhibition of topoisomerase 2 in human MDA-MB-231 cells assessed as reduction in cell growth measured after 72 hrs by MTT assay; format: cell-based; details: not given

| Structure (SMILES) | IC50 [µM] |
| --- | --- |
| O=C1c2ccccc2C(=O)c2c(O)c(C(O)c3cc(Br)cs3)cc(O)c21 (stereo not given) | 33.3 |
| CSc1ccc(C(O)c2cc(O)c3c(c2O)C(=O)c2ccccc2C3=O)cc1 (stereo not given) | > 50 |
| COc1cccc2c1C(=O)c1c(O)c3c(c(O)c1C2=O)C[C@@](O)(C(=O)CO)C[C@@H]3O[C@H]1C[C@H](N)[C@H](O)[C@H](C)O1 [DOXORUBICIN] | 3.8 |
| O=C1c2ccccc2C(=O)c2c(O)c(C(O)c3ccc(Cl)s3)cc(O)c21 (stereo not given) | 47.2 |
| O=C1c2ccccc2C(=O)c2c(O)ccc(O)c21 [QUINIZARIN] | > 200 |

system: L02; test: Cytotoxicity against human L02 cells assessed as inhibition of cell growth measured after 72 hrs by MTT assay; format: cell-based; details: L02, 72 h

| Structure (SMILES) | IC50 [µM] |
| --- | --- |
| O=C1c2ccccc2C(=O)c2c(O)c(C(O)c3cc(Br)cs3)cc(O)c21 (stereo not given) | > 50 |
| CSc1ccc(C(O)c2cc(O)c3c(c2O)C(=O)c2ccccc2C3=O)cc1 (stereo not given) | > 50 |
| COc1cccc2c1C(=O)c1c(O)c3c(c(O)c1C2=O)C[C@@](O)(C(=O)CO)C[C@@H]3O[C@H]1C[C@H](N)[C@H](O)[C@H](C)O1 [DOXORUBICIN] | 3.5 |
| O=C1c2ccccc2C(=O)c2c(O)c(C(O)c3ccc(Cl)s3)cc(O)c21 (stereo not given) | > 50 |
| O=C1c2ccccc2C(=O)c2c(O)ccc(O)c21 [QUINIZARIN] | > 200 |
